# Assay results as given in patent US20140336135A1, “NOVEL USE OF RHODODENDRIN” (Catholic University Industry Academy Cooperation Foundation, priority 2013, published 2014).
# Key:
# HaCaT cells [1] = assay: Cytotoxicity of rhododendrin, MTT cell viability; assay type: cell-based, human; settings: various concentrations, 24 hours
# Protocol: HaCaT cells were purchased from CLS Cell Line Service GmbH (Eppelheim, Germany). HaCaT cells were seeded at a density of 2×10^4 cells/well in 96-well plates. After a 12 hours incubation, the cells were incubated with various concentrations of rhododendrin for 24 hours. Then, cells were incubated with 3-(4,5-dimethylthiaol-2-yl)-2,5-diphenyltetrazolium bromide (MTT) reagent for 2-4 hours at 37° C. To calculate cell viability, MTT signals were quantified with a microplate reader (BioTek, Winooski, Vt., USA) at wavelength of 540 nm.
# HaCaT cells [2] = assay: ROS scavenging activity, ROS induced by TNF-α/IFN-γ (H2DCF-DA); assay type: cell-based, human
# Protocol: HaCaT cells were seeded at a density of 3×10^5 cells/well in 6-well plates for 12 hours. Cells were washed with serum-free media, treated with 20 μm rhododendrin for 1 hour, and then stimulated with 10 ng/ml of TNF-α and 100 U/ml of […] for 3 hours. The cells were stabilized in Hanks' balanced salt solution (HBSS) for 30 minutes, stained with 10 μM 2′,7′-dichlorofluorescin diacetate (H2DCF-DA) at 37° C. for 30 minutes, and ROS signal was then analyzed with confocal microscopy with emission at 513 nm and excitation at 488 nm. Also, the fluorescence of the cells was measured with a microplate reader (Synergy, BIO TEK, US).
# [3] = test system: Human keratinocyte HaCaT cells; assay: Inhibition of intracellular ROS induced by UV irradiation (H2DCF-DA); assay type: cell-based; settings: 20 μM rhododendrin 1 hour, then 100 J/m^2 UV light
# Protocol: Human keratinocyte HaCaT cells (obtained from professor N. Fusenig, Cancer Research, Germany) were placed in a 60-mm culture dish at a density of 5×10^5 cells (1×10^6 cells for a 100 mm culture dish), and then cultured in 10% FBS (fetal bovine serum)-containing DMEM (Dulbecco's modified Eagle's medium) for 24 hours.
# After culture, the cells were treated with 20 μM rhododendrin for 1 hour, and then washed three times with PBS (phosphate buffered saline). To induce ROS (reactive oxygen species), the cells were irradiated with 100 J/m^2 of UV light from a UV lamp (FSX 24 T12/UVB/HO, Pansol™ USA). Immediately after UV irradiation, the cells were washed with PBS and cultured for 4 hours in 1% FBS-containing DMEM medium supplemented with […]. Then, the cells were treated with 25 μM DCFH-DA (2,7-dichlorofliuorescin diacetate) in HBSS (Hank's balanced salt solution, BioWhittaker, CAMBREX, USA) buffer for 30 minutes, and then washed three times with PBS. Next, the measurement of ROS production in the cells by H2DCF-DA staining was performed in the same manner as described in Example 3-1.
# [4] = test system: mice having psoriasis induced by imiquimod; assay: Inhibition of hyperkeratinization in imiquimod psoriasis-induced mouse model (histology, qRT-PCR); assay type: in vivo, mice (C57BL/6)
# Protocol: Tissues were excised from mice having psoriasis induced by imiquimod, and then the effect of rhododendrin on the inhibition of hyperkeratinization in the tissues was examined by histological analysis and qRT (quantitative real-time)-PCR analysis.
# Specifically, in order to induce psoriasis by imiquimod, the hairs on the back of 8-week-old mice (C57BL/6, Central Animal Laboratory Inc.) were removed by using hair removal cream. The back of the mice was pre-treated daily with 20 mM rhododendrin before 1 hour, and then imiquimod (3.125 mg) was applied to the back at an one-day interval for 7 days. On the last day of application, the tissues were collected.
# Histological examination of the mice skin was performed in the following manner. The mouse skin tissues were fixed in PBS containing 4% paraformaldehyde for 24 hours, washed with tap water, dehydrated with ethanol, and then embedded in paraffin to make a paraffin block. The paraffin block was cut with a microtome into 4 μm-thick sections, which were then placed on a glass slide and treated with xylene to remove wax (paraffin). Then, the tissue sections were dehydrated with ethanol and stained with hematoxylin-eosin (H&E). Histological analysis was performed using a fluorescence attached microscope (Olympus, Japan).
# RNA isolation and qRT (quantitative real-time)-PCR analysis were performed in the following manner. Total RNAs were isolated from the tissues using an RNeasy Mini Kit (Qiagen, Valencia, Calif., USA) according to the manufacturer's instructions, and then synthesized into cDNA using QuantiTect Reverse Transcription Kit (Qiagen) according to the manufacturer's instructions. qRT-PCR was performed using Rotorgene™6000 (Corbett life Science) with KAPA™SYBR FAST q-PCR Master Mix(2×) universal. The relative amount of mRNAs was determined by […] method using GAPDH as an internal control. PCR was performed under the following conditions: 95° C. for 5 min; 35 cycles, each consisting of 96° C. for 20 sec, 60° C. for 20 sec and 72° C. for 20 sec; and one cycle at 72° C. for 5 min.
# TLR7 signaling = assay: Effect on TLR7 signaling pathway in keratinocytes (Western blot, immunofluorescence); assay type: cell-based, human
# Protocol: Keratinocytes were treated with imiquimod, and then TLR7 signaling in the cells was examined by Western blot analysis and immune fluorescence staining. The detailed experimental methods are as follows.
# Primary keratinocytes collected from the foreskin of a healthy subject were cultured. Human keratinocytes were cultured in keratinocyte serum-free medium (K-SFM) supplemented with epidermal growth factor (EGF) and bovine pituitary extract (Gibco BRL, Rockville, Md.). When the cells reached to 70% confluency, the cells were washed twice with PBS and cultured in K-SFM for 24 hours. To induce the differentiation of the keratinocytes, 1.2 mM calcium was added to the cells which were then cultured for 1, 3, 7 and 14 days, respectively.
# Western blot analysis was performed in the following manner. Serum-starved keratinocytes were treated with various concentrations of rhododendrin for 1 hour, and then stimulated by treatment with imiquimod for different time periods. The cell pellets were lysed in ice-cold RIPA buffer (Roche Applied Science, Indianapolis, Ind., USA) containing protease inhibitor cocktail at 4° C. for 30 minutes. Protein samples were isolated by SDS-PAGE (sodium dodecylsulfate-polyacrylamide gel electrophoresis) and analyzed by immunoblotting. Briefly, the protein on the SDS polyacrylamide gel was transferred to a nitrocellulose membrane (Amersham, UK). […] A signal was detected using X-ray film development or Image-Analyzer System (LAS-3000, Fujifilm, Japan) in a dark room.
# In addition, the expression patterns of TLR7, NF-kB (a marker of TLR7) and caveolin (a marker of psoriasis) were analyzed by immunofluorescence in the following manner.
# Primary keratinocytes (5×10^5 cells/well) were pre-treated with rhododendrin for 1 hour, and then stimulated with imiquimod for 1 hour. The signal of immunostained NF-kB p65 was analyzed by the method described in Y. Kim. et. al., Free Radical Biology and Medicine; 51(11): 1985-1995, 2011. […]
structure (smiles),measurement,setting,value
"C[C@H](CCc1ccc(O)cc1)O[C@@H]1O[C@H](CO)[C@@H](O)[C@H](O)[C@H]1O [rhododendrin, Rhododendrin]","cytotoxicity (cell viability, MTT)",HaCaT cells [1],no cytotoxicity
same,production of DCF-fluorescence (microplate reader),"HaCaT cells [2]; 20 μM rhododendrin, then TNF-α/IFN-γ, FIG. 3",decreased to that in the control group not treated with TNF-α/IFN-γ
same,ROS signal (H2DCF-DA fluorescence) by confocal microscopy,"HaCaT cells [2]; 20 μm rhododendrin 1 hour, then 10 ng/ml TNF-α and 100 U/ml IFN-γ 3 hours, FIG. 2",no fluorescence was detected
same,ROS fluorescence by confocal microscopy,[3]; FIG. 4,only very minute fluorescence spots were found
same,amount of DCF-fluorescence (microplate reader),"[3]; versus group not treated, FIG. 5",significantly lower
same,induction of psoriasis (visual observation of the back tissue),"[4]; 20 mM rhododendrin on the back daily 1 hour before imiquimod (3.125 mg), 7 days, FIGS. 6 to 8",significantly decreased
same,thickness of the epidermal and dermal layers,"[4]; 20 mM rhododendrin topical, imiquimod 7 days, H&E histology, FIGS. 7, 8",a decrease in the thickness of the epidermal and dermal layers
same,"expression of TLR (mRNA, qRT-PCR) in skin tissue","[4]; 20 mM rhododendrin topical, imiquimod 7 days, versus control group, FIG. 9",significantly lower
same,activity of caveolin (marker of psoriasis),"TLR7 signaling; keratinocytes, imiquimod and 20 μM rhododendrin, fluorescence staining, FIG. 14",protected
same,activity of TLR7 (down signaling),"TLR7 signaling; primary keratinocytes pre-treated with rhododendrin 1 hour, then imiquimod, FIGS. 12 and 13",inhibited
same,activity of NF-kB (marker of TLR7),"TLR7 signaling; primary keratinocytes pre-treated with rhododendrin 1 hour, then imiquimod, phospho-NF-kB p65 Western blot and p65 immunostaining, FIGS. 12 and 13",also inhibited
